The text below walks through data of publication PMC6813925, “Zearalenone and ß-Zearalenol But Not Their Glucosides Inhibit Heat Shock Protein 90 ATPase Activity” (Frontiers in Pharmacology, 2019).

The target of one data set is TaHSP90-2 (Triticum aestivum, UniProt A0ACM8QAI9). Put plainly: biochemical. Conditions: for ATPase inhibition of TaHSP90-2: Figure 4B-D; for remaining activity at 100 µM: read-out: remaining (residual) ATPase activity of TaHSP90-2. An excerpt:
(§1) For initial experiments, we expressed and purified the Saccharomyces cerevisiae ScHsp82 protein. The HSP82 coding region was amplified using the primer pair HSP82-1fwd (5’-[…]-3’) and HSP82-2rev (5’-[…]-3’), which contain BamHI and HindIII sites (underlined), respectively. The resulting 2,156 bp fragment was digested with BamHI and HindIII and ligated into the expression vector pQE-80L (Qiagen) cleaved with the same enzymes yielding plasmid pGW870. The coding region of AtHSP90.1 (At5g52640) was amplified from cDNA with the oligonucleotide primers 5’-[…]-3’ and 5’-[…]-3’. The resulting PCR product was digested with NdeI and SpeI (restriction sites on primers underlined) and introduced to pQE-80L (Qiagen), cleaved with the same enzymes to obtain the construct pQE80:AtHSP90.1. The cDNA of wheat HSP90 gene TaHSP90-2 (Triticum aestivum; DQ665784.1) was amplified with 5’-[…]-3’ and 5’-[…]-3’ (NdeI and SpeI, respectively) and introduced to pQE-80L. All constructs were verified by sequencing.
(§2) Protein production was induced by isopropyl β-D-1-thiogalactopyranoside (IPTG) following the supplier’s instructions. Protein purification was performed on an Äkta system (GE Healthcare, Uppsala, Sweden). […] Further purification was done by anion exchange chromatography on a 1 ml Resource Q column (GE Healthcare). Proteins were bound to the column in 25 mM Tris/Cl pH 7.5 and eluted with a linear gradient of 0–1 M NaCl in 15 column volumes. The obtained fractions were desalted using a Sephadex™ G-25 fine column, and the purified recombinant proteins were stored in the final elution buffer (25 mM Tris/Cl pH 7.5) at 4°C.
(§3) The ATPase activities of recombinant proteins AtHSP90.1, TaHSP90-2, and ScHsp82 were assayed following the method of [Rowlands et al. (2004)] using an ATP concentration of 1 mM. The effect of several potential inhibitors was tested in 96-well plates using toxin concentrations ranging from 1 to 150 µM. All compounds were dissolved in 20% DMSO and further diluted. The assays were performed in a total volume of 25 µl with a final protein concentration of 0.2 µg/µl and 4% DMSO. Controls were incubated with the solvent DMSO without inhibitor. The reactions were incubated at 37°C for 3 h in the dark. After this time, the released inorganic phosphate was quantified with the malachite green colorimetric assay ([Rowlands et al., 2004]). The reaction was stopped by adding 10 µl of 34% sodium citrate to each well after 20 min incubation at room temperature, and the absorbance was measured at 620 nm.
To test whether the yeast model reflects the situation in dicot and monocots plants, AtHSP90.1 and an HSP90 protein from wheat were expressed and purified. The wheat cDNA previously named “TaHSP90-2” corresponds to UniProtKB Q0Q0I7 (Q0Q0I7_WHEAT). This gene belongs to a family of nine highly similar cytosolic HSP90 proteins of wheat, has been named HSP90.3-D1 in a functional study ([Wang et al., 2011]), and is located on chromosome 5D (= EnsemblPlants Traes_5DL_89CF7F5DE).

Data set [1] relates to Arabidopsis thaliana plants containing RPS2. Also on record: method as in Takahashi et al., 2003. Conditions: 10 μM; ref Takahashi et al., 2003; cited from earlier work.
Another data set deals with yeast strain YZGA515. The experiment in a line: Yeast spotting assay for RAD toxicity. It is filed as cell-based, Saccharomyces cerevisiae. Conditions: multiple-ABC-transporter-deficient yeast strain, SC-LEU plates with 40 mg/L RAD. The source says:
(§4) Previously, we had shown that AtUGT73C6, when expressed in a multiple-ABC-transporter–deficient yeast strain, leads to the production of ZEN-14-glucoside [old nomenclature ZEN-4-glucoside, [Metzler (2011)]] after ZEN treatment ([Poppenberger et al., 2006]). […] We therefore generated RAD-glucoside for in vitro tests. […] Therefore, we were unable to determine at which position RAD was glucosylated.
Spotting of YZGA515 transformants (three serial 10^−1 dilutions) expressing either AtUGT73C6 (upper row) or containing the empty vector.

Data set [2] can be described thus: Solubility and handling stability observations. Format: physicochemical.
Text: as §4

The target in data set [3] is T1, AtHSP90.1 (Arabidopsis thaliana, UniProt P27323).
T1 construct: The coding region of AtHSP90.1 (At5g52640) was amplified from cDNA; 6xHis; made in house; host or cells: Escherichia coli BL21 (DE3) or phosphatase-deficient strain K894
Put plainly: HSP90 ATPase activity assay (malachite green), AtHSP90.1. It is filed as biochemical.
Text: as §1, §2
The ATPase activities of recombinant proteins AtHSP90.1, TaHSP90-2, and ScHsp82 were assayed following the method of [Rowlands et al. (2004)] using an ATP concentration of 1 mM. […] After this time, the released inorganic phosphate was quantified with the malachite green colorimetric assay ([Rowlands et al., 2004]). The reaction was stopped by adding 10 µl of 34% sodium citrate to each well after 20 min incubation at room temperature, and the absorbance was measured at 620 nm. […]

The next data set concerns the target T2, ScHsp82p (Saccharomyces cerevisiae, UniProt P02829).
T2 construct: The HSP82 coding region was amplified using the primer pair HSP82-1fwd; 6xHis (N); made in house; host or cells: Escherichia coli BL21 (DE3) or phosphatase-deficient strain K894
Put plainly: biochemical. It is filed as biochemical. The note with it: for remaining ATPase activity of ScHsp82p: at 100 µM, relative to DMSO control.
Text: as §1, with “The resulting 2,156 bp fragment was digested with BamHI and HindIII and ligated into the expression vector pQE-80L (Qiagen) cleaved with the same enzymes yielding plasmid pGW870.” left out
as §2
All compounds were dissolved in 20% DMSO and further diluted. The assays were performed in a total volume of 25 µl with a final protein concentration of 0.2 µg/µl and 4% DMSO. Controls were incubated with the solvent DMSO without inhibitor. The reactions were incubated at 37°C for 3 h in the dark.

Data set [4] relates to AtHSP90.1. The experiment in a line: Quantitative real-time PCR of AtHSP90.1 in seedlings. Format: cell-based, Arabidopsis thaliana. The note with it: 50 µM, 2 h, vs mock control DMSO, reference gene AT5G46630. The procedure: A. thaliana (ecotype Columbia, Col-0) seeds were surface-sterilized using sodium hypochlorite (2%) plus 0.01% Triton X for 10 min and rinsed twice with sterile water. Seeds were distributed in 24-well plates (4 wells per treatment, 30–40 seeds per well) and re-suspended in 1 ml (per well) of liquid Murashige and Skoog medium (“MS” basal salt mixture, Sigma) supplemented with 1% sucrose. After 2 days of stratification at 4°C, the plates were transferred to a growth chamber at 21°C under a 16 h light/8 h dark photoperiod.
Total RNA was extracted from 13-day-old A. thaliana (Col-0) seedlings grown in liquid MS medium supplemented with 2.5% sucrose and 50 μM ZEN for 2 h. […] RNA was quantified with the Qubit (Invitrogen) and NanoDrop (Peqlab) systems. […] Absolute and relative expression were calculated with a dilution series of purified AtHSP90.1 and AP2M PCR fragments of known molar concentration in each RT-qPCR run. […] Each sample was measured in triplicate from four independent cDNAs. […]
Figure 2 Transcriptional response of Arabidopsis thaliana HSP90 genes to zearalenone (ZEN). […] (B) Quantitative real-time PCR of A. thaliana HSP90.1 after 2 h treatment with ZEN (50 µM) or DMSO. The results are expressed as relative expression to the reference gene ADAPTOR PROTEIN-2 MU-ADAPTIN (AP2M; AT5G46630) and represent the means of four biological replicates ± standard deviation.
Background: Quantitative PCR measures a nucleic acid by following its amplification.

The test system of data set [5] is AtHSP90.1. Also on record: method as in Werner, 2005. Conditions: 50 µM, 2 h, vs DMSO; ref Werner, 2005; cited from earlier work.
A short description of data set [6]: Stability of glucosides under ATPase assay conditions (LC-MS/MS before and after incubation). It is filed as physicochemical. Conditions: LC-MS/MS before and after incubation period, p = 0.21. Here is the method: as §3
Likewise, we found all glucosides of ZEN, αZEL, and βZEL stable under identical conditions, with recoveries of > 88%, p > 0.05, in each case.

T1 sequence (P27323 whole entry): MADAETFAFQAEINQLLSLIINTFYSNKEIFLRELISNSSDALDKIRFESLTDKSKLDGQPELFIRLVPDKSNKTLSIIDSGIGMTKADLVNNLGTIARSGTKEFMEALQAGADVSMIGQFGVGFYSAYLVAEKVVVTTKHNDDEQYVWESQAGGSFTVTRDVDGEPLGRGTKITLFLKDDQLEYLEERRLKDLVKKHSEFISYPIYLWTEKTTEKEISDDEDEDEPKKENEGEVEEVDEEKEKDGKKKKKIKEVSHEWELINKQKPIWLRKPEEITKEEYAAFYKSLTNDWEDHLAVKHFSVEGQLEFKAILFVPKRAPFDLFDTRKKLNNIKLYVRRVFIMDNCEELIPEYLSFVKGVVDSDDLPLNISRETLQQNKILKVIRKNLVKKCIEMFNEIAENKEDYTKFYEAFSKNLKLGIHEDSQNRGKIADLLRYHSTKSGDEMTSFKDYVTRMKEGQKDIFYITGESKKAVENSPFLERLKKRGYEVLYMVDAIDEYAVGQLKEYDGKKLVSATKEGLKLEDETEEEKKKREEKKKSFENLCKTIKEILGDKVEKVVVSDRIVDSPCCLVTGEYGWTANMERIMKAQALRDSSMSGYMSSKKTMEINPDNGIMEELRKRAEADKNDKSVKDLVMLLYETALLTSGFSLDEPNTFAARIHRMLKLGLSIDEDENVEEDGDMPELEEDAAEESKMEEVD
T2 sequence (P02829 whole entry): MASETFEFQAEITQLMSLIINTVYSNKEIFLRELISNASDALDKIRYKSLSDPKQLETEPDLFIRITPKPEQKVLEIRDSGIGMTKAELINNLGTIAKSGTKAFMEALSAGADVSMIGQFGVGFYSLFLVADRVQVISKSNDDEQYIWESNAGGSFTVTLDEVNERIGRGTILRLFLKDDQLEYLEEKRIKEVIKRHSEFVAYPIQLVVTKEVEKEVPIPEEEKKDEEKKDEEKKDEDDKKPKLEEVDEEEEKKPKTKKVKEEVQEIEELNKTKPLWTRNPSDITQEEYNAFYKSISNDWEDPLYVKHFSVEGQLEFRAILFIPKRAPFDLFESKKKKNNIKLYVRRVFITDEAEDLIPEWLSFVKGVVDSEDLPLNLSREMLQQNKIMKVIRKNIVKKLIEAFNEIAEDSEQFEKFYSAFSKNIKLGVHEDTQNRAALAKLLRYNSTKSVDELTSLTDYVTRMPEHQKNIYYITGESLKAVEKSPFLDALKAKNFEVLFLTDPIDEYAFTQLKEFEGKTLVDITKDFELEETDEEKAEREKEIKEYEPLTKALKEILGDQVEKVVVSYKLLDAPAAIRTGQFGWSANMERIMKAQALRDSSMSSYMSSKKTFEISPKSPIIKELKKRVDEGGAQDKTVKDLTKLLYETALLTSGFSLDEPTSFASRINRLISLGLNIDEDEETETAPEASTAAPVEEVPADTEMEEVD
Sequence of TaHSP90-2 (A0ACM8QAI9 1-700): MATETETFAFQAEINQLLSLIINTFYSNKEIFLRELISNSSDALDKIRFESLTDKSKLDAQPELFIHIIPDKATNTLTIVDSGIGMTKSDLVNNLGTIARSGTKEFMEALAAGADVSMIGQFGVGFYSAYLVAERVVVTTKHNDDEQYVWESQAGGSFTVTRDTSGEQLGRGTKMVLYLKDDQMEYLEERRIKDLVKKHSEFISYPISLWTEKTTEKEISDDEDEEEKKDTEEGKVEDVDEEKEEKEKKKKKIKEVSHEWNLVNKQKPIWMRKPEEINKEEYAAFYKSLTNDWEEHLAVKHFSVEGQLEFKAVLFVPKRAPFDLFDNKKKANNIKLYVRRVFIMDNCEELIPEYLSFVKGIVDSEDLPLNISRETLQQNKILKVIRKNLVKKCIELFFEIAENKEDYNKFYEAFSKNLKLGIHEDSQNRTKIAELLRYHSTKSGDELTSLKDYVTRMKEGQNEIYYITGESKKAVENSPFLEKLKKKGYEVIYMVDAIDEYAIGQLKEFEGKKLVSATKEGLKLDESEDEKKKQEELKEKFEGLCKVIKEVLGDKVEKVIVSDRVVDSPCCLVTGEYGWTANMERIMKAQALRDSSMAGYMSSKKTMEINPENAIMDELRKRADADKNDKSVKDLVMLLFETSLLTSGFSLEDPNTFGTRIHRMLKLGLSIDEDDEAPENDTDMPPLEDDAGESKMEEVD

Turning to `C[C@H]1CCCC(=O)CCC/C=C/c2cc(O)cc(O[C@@H]3O[C@H](CO)[C@@H](O)[C@H](O)[C@H]3O)c2C(=O)O1` [ZEN16G, zearalenone-16-O-ß-D-glucopyranoside], the “ATPase inhibition of TaHSP90-2” value on TaHSP90-2 is given as “did not cause activity reduction”.

Turning to `COC1=C2C[C@@H](C)C[C@H](OC)[C@H](O)[C@@H](C)/C=C(\C)[C@H](OC(N)=O)[C@@H](OC)/C=C\C=C(/C)C(=O)NC(=CC1=O)C2=O` [geldanamycin], the “hypersensitive response triggered by Pseudomonas syringae DC3000 (avrRpt2)” value in data set [1] is recorded as “diminished”.

Take `C[C@@H]1C[C@H]2O[C@@H]2/C=C\C=C\C(=O)Cc2c(Cl)c(O)cc(O)c2C(=O)O1` [RAD, radicicol, reference compound]: the “toxicity to yeast strain” value in the data set with yeast strain YZGA515 is “toxic”. Besides, in [2] (yeast culture medium), the solubility in medium result was “limited solubility”.

Consider `C[C@H]1CCCC(=O)CCC/C=C/c2cc(O)cc(O)c2C(=O)O1` [ZEN, zearalenone], for which, at AtHSP90.1 [3], the IC50 (as a rule, the concentration needed to halve the response being measured) is ~10 µM. The “remaining ATPase activity of AtHSP90.1” value on AtHSP90.1 [3] (at 100 µM) was 18 ± 6%. The “remaining ATPase activity of ScHsp82p” value at ScHsp82p is recorded as 59 ± 5%. For the same molecule, the “induction of AtHSP90.1 (quantitative real-time PCR)” value with AtHSP90.1 [4] is reported as 35 fold. In the data set with AtHSP90.1 [5], the “induction of AtHSP90.1 (microarray)” value is listed as “about 3.7 fold”. Moreover, on TaHSP90-2, the IC50 amounted to 20 µM and the remaining activity (usually the share of the control activity or signal that is left under treatment) at 100 µM was 12 ± 5%.

Regarding radicicol-glucoside [RAD-glucoside], the “change in concentration under assay conditions” value in [6] is reported as “no significant”. In addition, in data set [2] (particularly when brought to dryness), the stability on handling entry is given as “appears unstable”.

With `C[C@H]1CCC[C@@H](O)CCC/C=C/c2cc(O)cc(O)c2C(=O)O1` [ßZEL, ß-zearalenol], the “remaining ATPase activity of ScHsp82p” value at ScHsp82p was determined as 8.6 ± 2.4%. On ScHsp82p (recombinant 6xHis ScHsp82p, 1 mM ATP, 37°C, 3 h, read-out: IC50, ATPase inhibition of ScHsp82p), the IC50 was ~15 µM. On TaHSP90-2, the IC50 is ~10 µM and the remaining activity at 100 µM came to 0.7 ± 3.3%.

`C[C@H]1CCC[C@H](O)CCC/C=C/c2cc(O)cc(O)c2C(=O)O1` [αZEL, α-zearalenol]: at ScHsp82p (toxin concentrations 1 to 150 µM), the “ATPase inhibition of ScHsp82p” value is listed as “did not elicit a detectable response”. Moreover, the remaining activity at 100 µM at TaHSP90-2 was found to be 71 ± 6%.

Consider `C[C@H]1CCCC(=O)CCC/C=C/c2cc(O[C@@H]3O[C@H](CO)[C@@H](O)[C@H](O)[C@H]3O)cc(O)c2C(=O)O1` [ZEN14G, zearalenone-14-O-ß-D-glucopyranoside], for which the “ATPase inhibition of AtHSP90.1” value on AtHSP90.1 [3] (100 µM, p = 0.75) was “inactive”. Moreover, the “ATPase inhibition of TaHSP90-2” value at TaHSP90-2 was “did not cause activity reduction”.
